Results reported in publication PMC7549094 (Journal of Medicinal Chemistry, 2020).

Key:
L. major = assay: BALB/c mouse lesion cure model of Old World cutaneous leishmaniasis; type: in vivo; details: BALB/c mice infected with L. major; 20 mg/kg b.i.d. PO, 10 days
Text: Data in the graph show progression of lesion sizes at the base of the tail of BALB/c mice infected with 1 × 10^7L. major parasites after 10 days of treatment. Experimental time points represent the mean lesion sizes ± SEM (n = 6). Single-factor ANOVA (Dunnet’s test) was used to determine the statistical significance of differences in lesion sizes between vehicle and compound-treated groups (P < 0.05).
Lesion cure model of Old World leishmaniasis (L. major). Female BALB/c mice (6 weeks old) were
used in this model. Mice were infected intradermally at base of the tail with 100 µl parasite culture
containing 1x107 L. major MHOM/IR/-/173 stationary phase promastigotes. Starting from the third week
post-infection, the lesion induration diameters (length=D1 and width=D2) were measured using a caliper
instrument (Fisher Scientific, USA) with 0.1 mm sensitivity. Length and width measurements were taken to account for asymmetrical lesions. Lesion size area was then calculated using the πR1*R2 formula
(where R1=D1/2 and R2 = D2/2). Lesions were measured at a 10 -day (+/- 2 days) interval until the end
of the study. Experimental endpoint is lesion cure or % lesion size re duction relative to lesion size in
vehicle-treated group. Lesion cure is considered 100% re-epithelialization of the lesion (lesion size = 0
10 mg/kg and 20 mg/kg twice-daily). In a positive control treatment group, animals were dosed by […]

hr 5-HT2B ag = hr 5-HT2B ag (Homo sapiens, UniProt P41595); assay: receptor profile (Table S4); type: biochemical
[1] = biological target: wild-type (PSMB4^WT) L. tarentolae proteasome (Leishmania tarentolae, UniProt A0A640KTY7+A0A640KW57); assay: chymotrypsin-like activity of purified wild-type L. tarentolae proteasome; type: biochemical; details: n = 3 technical replicates
Sequence of wild-type (PSMB4^WT) L. tarentolae proteasome (A0A640KW57 100-302): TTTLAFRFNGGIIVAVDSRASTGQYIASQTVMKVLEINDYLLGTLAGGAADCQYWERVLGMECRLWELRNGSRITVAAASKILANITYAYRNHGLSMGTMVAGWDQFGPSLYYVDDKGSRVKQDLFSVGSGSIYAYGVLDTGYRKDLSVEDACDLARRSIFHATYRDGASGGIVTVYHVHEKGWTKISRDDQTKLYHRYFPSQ
Sequence of wild-type (PSMB4^WT) L. tarentolae proteasome (A0A640KTY7 1-206): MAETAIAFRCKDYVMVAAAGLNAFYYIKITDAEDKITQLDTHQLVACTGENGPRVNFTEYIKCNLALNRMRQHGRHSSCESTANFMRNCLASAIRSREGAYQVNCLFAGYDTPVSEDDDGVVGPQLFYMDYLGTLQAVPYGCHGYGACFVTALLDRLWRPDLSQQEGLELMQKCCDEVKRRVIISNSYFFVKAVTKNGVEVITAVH

hr GR ag = biological target: T1, hr GR ag (Homo sapiens, UniProt P04150); assay: receptor profile (Table S4); type: biochemical
T1 sequence (P04150 1-777): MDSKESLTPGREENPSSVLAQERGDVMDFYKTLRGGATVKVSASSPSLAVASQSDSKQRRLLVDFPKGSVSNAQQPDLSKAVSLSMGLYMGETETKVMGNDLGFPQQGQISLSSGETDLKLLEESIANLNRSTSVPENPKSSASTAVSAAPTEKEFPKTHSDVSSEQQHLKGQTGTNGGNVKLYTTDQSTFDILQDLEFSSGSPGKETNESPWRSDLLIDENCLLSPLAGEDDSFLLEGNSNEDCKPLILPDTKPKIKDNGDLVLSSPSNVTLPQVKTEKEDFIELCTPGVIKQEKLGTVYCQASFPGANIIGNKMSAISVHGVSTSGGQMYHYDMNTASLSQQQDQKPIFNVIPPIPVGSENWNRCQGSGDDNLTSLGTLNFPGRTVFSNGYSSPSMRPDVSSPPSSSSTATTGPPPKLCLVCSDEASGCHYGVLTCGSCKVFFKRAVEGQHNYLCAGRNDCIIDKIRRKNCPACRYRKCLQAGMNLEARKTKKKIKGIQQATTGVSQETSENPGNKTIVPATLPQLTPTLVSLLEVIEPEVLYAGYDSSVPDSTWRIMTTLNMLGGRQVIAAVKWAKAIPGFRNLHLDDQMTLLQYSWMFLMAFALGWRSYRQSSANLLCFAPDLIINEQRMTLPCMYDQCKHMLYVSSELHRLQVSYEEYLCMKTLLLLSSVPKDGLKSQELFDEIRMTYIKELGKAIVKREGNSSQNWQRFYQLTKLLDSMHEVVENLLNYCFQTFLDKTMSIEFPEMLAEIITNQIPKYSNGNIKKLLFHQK

hr Beta1 = hr Beta1 (Homo sapiens, UniProt P08588); assay: receptor profile (Table S4); type: binding
Sequence of hr Beta1 (P08588 whole entry): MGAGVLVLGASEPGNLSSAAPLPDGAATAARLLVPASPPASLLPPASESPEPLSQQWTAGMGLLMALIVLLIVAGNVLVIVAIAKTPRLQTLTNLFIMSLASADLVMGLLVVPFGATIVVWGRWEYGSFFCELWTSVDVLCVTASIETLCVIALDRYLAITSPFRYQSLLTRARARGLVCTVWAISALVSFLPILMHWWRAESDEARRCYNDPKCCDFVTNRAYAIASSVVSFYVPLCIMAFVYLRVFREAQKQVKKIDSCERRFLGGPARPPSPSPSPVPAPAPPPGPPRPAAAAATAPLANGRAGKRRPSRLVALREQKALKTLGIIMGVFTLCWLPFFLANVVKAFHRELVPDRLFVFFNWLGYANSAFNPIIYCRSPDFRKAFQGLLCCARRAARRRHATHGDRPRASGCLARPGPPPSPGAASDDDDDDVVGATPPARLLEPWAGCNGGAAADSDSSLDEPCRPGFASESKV

[2] = Balb/C mice, 20 mg/kg PO; dose-normalized
Experimental: In Vivo PK Studies in Mice.
The solution was filtered using a 0.45 m syringe filter before dosing. Two male Balb/c mice were administered 1 intravenously via the lateral tail
vein at 5 mg/kg with a dose volume of 2.0 mL/kg. 1 was also formulated in a suspension of 0.5%
methylcellulose with 0.5% Tween 80 (0.5% MC/0.5% Tw80) in water at 2.5 mg/mL. A group of mice
(n=3) were administered 1 orally via gavage at 20 mg/kg with a dose volume of 8.0 mL/kg.
The mouse blood samples were centrifuged to separate plasma and the plasma samples were frozen at -
In Vivo PK Studies in Rats.
Two male Wistar rats were administered
1 intravenously via the lateral tail vein at 3 mg/kg with a dose volume of 1.0 mL/kg. 1 was also formulated
in a suspension of 0.5% methylcellulose with 0.5% Tween 80 (0.5% MC/0.5% Tw80) in water at 2.0
mg/mL. The second group of rats (n=3) were administered 1 orally via gavage at 10 mg/kg in suspension
with a dose volume of 5.0 mL/kg. Six blood samples of 100 μL each were collected serially from each
animal via the saphenous vein up to 24 hours after dosing. The rat blood samples were centrifuged to
separate plasma and the plasma samples were frozen at -20°C until analysis.
In Vivo PK Studies in Dogs.
The solution was filtered using a 0.45 m syringe filter before dosing. Three male Beagle dogs were administered 1 intravenously via saphenous
vein at 0.3 mg/kg with a dose volume of 0.1 mL/kg. 1 was also formulated in a suspension of 0.5%
methylcellulose with 0.5% Tween 80 (0.5%MC/0.5% Tween 80) in water at 1.0 mg/mL. The second
group of male dogs (n=2) were administered 1- orally via gavage at 1.0 mg/kg with a dose volume of 1.0
mL/kg. Seven blood samples of 250 µL each were collected serially from each animal via the jugular vein
The dog blood samples were centrifuged to separate plasma and the plasma
samples were frozen at -20 °C until analysis.

rr AR ag = biological target: T2, rr AR ag (Rattus norvegicus, UniProt P15207); assay: receptor profile (Table S4); type: biochemical
T2 sequence (P15207 1-902): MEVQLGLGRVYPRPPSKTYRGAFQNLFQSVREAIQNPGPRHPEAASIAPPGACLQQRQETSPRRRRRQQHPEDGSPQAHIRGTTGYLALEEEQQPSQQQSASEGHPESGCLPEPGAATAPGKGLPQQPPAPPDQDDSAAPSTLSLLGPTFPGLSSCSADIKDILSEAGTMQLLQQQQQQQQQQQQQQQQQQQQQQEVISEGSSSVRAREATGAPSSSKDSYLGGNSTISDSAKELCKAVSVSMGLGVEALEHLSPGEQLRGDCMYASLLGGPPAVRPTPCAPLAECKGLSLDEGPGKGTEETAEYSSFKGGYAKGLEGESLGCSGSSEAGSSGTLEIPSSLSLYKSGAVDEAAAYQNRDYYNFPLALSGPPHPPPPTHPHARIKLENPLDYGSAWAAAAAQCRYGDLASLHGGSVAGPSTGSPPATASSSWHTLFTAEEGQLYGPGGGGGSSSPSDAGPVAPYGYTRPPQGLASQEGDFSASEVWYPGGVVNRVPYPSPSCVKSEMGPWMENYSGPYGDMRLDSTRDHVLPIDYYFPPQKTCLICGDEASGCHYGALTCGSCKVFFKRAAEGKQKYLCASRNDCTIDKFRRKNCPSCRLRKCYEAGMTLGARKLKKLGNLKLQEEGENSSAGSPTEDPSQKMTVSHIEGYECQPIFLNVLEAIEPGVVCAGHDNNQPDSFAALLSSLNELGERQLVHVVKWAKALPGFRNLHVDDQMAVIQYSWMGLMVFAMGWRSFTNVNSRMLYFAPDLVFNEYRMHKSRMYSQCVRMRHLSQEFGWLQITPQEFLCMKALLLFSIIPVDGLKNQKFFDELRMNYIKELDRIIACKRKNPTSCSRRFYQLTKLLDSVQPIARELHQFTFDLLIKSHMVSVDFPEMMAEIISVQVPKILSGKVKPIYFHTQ

hr DAT = hr DAT (Homo sapiens, UniProt Q01959); assay: receptor profile (Table S4); type: binding
Sequence of hr DAT (Q01959 whole entry): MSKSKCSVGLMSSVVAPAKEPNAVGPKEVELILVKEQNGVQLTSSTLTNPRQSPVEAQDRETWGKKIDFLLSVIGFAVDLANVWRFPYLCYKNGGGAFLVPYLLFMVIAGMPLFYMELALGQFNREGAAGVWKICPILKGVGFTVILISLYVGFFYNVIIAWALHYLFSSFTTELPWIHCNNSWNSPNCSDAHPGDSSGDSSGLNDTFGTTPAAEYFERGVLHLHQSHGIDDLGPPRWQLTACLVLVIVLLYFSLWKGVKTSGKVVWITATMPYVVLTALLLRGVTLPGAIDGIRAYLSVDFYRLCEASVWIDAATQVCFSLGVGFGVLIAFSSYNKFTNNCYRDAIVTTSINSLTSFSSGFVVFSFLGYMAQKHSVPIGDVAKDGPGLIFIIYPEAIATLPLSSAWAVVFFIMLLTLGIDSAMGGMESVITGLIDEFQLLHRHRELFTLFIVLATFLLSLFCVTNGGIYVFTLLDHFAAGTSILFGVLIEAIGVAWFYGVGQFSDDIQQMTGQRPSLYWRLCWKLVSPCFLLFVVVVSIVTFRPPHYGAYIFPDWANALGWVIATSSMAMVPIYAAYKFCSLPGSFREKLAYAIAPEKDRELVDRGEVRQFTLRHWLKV

ov COX-1 = biological target: T3, ov COX-1 (Ovis aries, UniProt P05979); assay: receptor profile (Table S4); type: biochemical, ovine
T3 sequence (P05979 25-600): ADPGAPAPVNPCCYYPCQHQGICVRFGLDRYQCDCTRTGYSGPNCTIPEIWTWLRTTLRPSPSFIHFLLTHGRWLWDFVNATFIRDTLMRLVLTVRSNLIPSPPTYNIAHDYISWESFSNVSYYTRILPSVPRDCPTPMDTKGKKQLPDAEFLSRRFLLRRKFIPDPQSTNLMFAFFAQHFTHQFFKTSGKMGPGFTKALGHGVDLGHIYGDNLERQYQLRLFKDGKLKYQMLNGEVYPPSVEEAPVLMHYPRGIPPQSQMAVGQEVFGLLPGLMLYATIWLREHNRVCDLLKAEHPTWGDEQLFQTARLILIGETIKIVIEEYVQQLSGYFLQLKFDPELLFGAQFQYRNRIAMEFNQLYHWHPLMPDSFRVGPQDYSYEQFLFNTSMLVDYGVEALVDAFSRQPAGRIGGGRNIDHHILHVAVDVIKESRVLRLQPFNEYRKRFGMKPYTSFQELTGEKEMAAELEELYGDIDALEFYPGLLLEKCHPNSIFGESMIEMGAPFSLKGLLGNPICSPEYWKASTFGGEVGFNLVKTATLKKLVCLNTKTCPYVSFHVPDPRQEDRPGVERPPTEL

Sequence of hr 5-HT2B ag (P41595 whole entry): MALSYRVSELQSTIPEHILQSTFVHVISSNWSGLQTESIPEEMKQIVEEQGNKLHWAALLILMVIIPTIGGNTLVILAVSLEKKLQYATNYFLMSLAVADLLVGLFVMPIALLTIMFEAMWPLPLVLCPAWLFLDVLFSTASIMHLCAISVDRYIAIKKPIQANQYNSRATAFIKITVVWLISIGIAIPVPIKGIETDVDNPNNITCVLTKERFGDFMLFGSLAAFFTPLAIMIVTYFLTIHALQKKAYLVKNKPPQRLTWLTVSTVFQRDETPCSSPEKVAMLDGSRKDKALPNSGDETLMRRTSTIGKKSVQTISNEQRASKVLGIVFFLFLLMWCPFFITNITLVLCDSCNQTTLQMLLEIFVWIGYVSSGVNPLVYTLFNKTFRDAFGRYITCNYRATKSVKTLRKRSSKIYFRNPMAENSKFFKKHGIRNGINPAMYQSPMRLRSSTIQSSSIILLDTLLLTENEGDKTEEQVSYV

For Cc1nc(C)c(C(=O)Nc2ccc(F)c(-c3nc4ncc(-c5ncccc5C)cn4n3)c2)o1 [compound 1, N-(4-Fluoro-3-(6-(3-methylpyridin-2-yl)-[1,2,4]triazolo[1,5-a]pyrimidin-2-yl)phenyl)-2,4-dimethyloxazole-5-carboxamide], the “therapeutic effect on skin lesions” value (L. major) was “comparable to that of liposomal amphotericin B”, the EC50/IC50 (hr 5-HT2B ag; hr 5-HT2B ag) was greater than 30 µM and the inhibition at 10 µM (hr 5-HT2B ag; read-out: % inh/act @ 10 µM) was -6%. It also gave an inhibition at 30 µM (hr 5-HT2B ag; read-out: % inh/act @ 30 µM) of -3%, an IC50 [1] of 0.05 µM and an EC50/IC50 (hr GR ag; hr GR ag) greater than 30 µM. It also gave an inhibition at 10 µM (hr GR ag; read-out: % inh/act @ 10 µM) of -5%, an inhibition at 30 µM (hr GR ag; read-out: % inh/act @ 30 µM) of -4% and an EC50/IC50 (hr Beta1; hr Beta1) greater than 30 µM. For the same molecule, the inhibition at 10 µM (hr Beta1; read-out: % inh/act @ 10 µM) was 6%, the inhibition at 30 µM (hr Beta1; read-out: % inh/act @ 30 µM) was 10% and the “DN AUC PO” value [2] was 7.5 µM·h. For the same molecule, the “DN Cmax PO” value [2] was 800 nM, the inhibition at 10 µM (rr AR ag; read-out: % inh/act @ 10 µM) was 1% and the inhibition at 30 µM (rr AR ag; read-out: % inh/act @ 30 µM) was 0%. The EC50/IC50 (rr AR ag; rr AR ag) was greater than 30 µM, the EC50/IC50 (hr DAT; hr DAT) was greater than 30 µM and the inhibition at 10 µM (hr DAT; read-out: % inh/act @ 10 µM) was 17%. For the same molecule, the inhibition at 30 µM (hr DAT; read-out: % inh/act @ 30 µM) was 22%, the EC50/IC50 (ov COX-1; ov COX-1) was greater than 30 µM and the inhibition at 10 µM (ov COX-1; read-out: % inh/act @ 10 µM) was 16%. The inhibition at 30 µM (ov COX-1; read-out: % inh/act @ 30 µM) was 14%.
